Assay results as given in patent US20110151529A1, “METHODS AND PROCESSES FOR PRODUCING ORGANIC ACIDS” (THE OHIO STATE UNIVERSITY, priority 2008, published 2011).

Test system: C. tyrobutyricum adapted culture from the FBB
Type: cell-based, Clostridium tyrobutyricum
Conditions: butyrate concentration increased from nil to 30 g/L

CCCC(=O)O [butyric acid]
growth ability retained: more than 50%
